For one test, the system named is KRAS-mutant PDC tumor spheroid with HUVEC/MSC, viability. The test can be described thus: Anticancer human tumor 327498-153-R-J2-PDC patient-derived uterine carcinosarcoma cell line growth inhibition [KRAS2]. The conditions noted are these: second compound 3.16 µM; first compound 0.316 µM; hits give low values. Summed up:
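Combination screen of spheroid viability in tumor-cell co-cultures with endothelial (HUVEC) and mesenchymal stem cell stroma. Each agent was tested in half-log dilutions, topping at clinical Cmax or at 10 microM without a known Cmax.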
Broadly, the viability, T/C is the ratio of treated to control. With `CCNC(=O)CC1N=C(c2ccc(Cl)cc2)c2cc(OC)ccc2-n2c(C)nnc21` (centres undefined) + COc1cc2nc(C)nc(NC(C)c3cc(N)cc(C(F)(F)F)c3)c2cc1OC1CCOC1, the viability, T/C is 47.2%.
On to `Cn1nccc1Nc1nccc(-c2cc3c(s2)C(C)(C)N(CCN2CCOCC2)C3=O)n1` + COc1cc2nc(C)nc(NC(C)c3cc(N)cc(C(F)(F)F)c3)c2cc1OC1CCOC1, for which the viability, T/C is 55.2%.

Still in this test, the particulars now being: second compound 3.16 µM; first compound 1 µM; hits give low values.
Take `CC1COCCN1c1cc(-c2ccnn2C)c2ccnc(-c3ccn[nH]3)c2n1` (centres undefined) + COc1cc2nc(C)nc(NC(C)c3cc(N)cc(C(F)(F)F)c3)c2cc1OC1CCOC1: the viability, T/C was 3.28%.
On the same count and under the same terms, the figure for `CC1OCC2(CCN(c3cnc(Sc4ccnc(N)c4Cl)c(N)n3)CC2)C1N` (centres undefined) + COc1cc2nc(C)nc(NC(C)c3cc(N)cc(C(F)(F)F)c3)c2cc1OC1CCOC1 is 28.7%; for `CCN1CCN(Cc2ccc(Nc3ncc(F)c(-c4cc(F)c5nc(C)n(C(C)C)c5c4)n3)nc2)CC1` + COc1cc2nc(C)nc(NC(C)c3cc(N)cc(C(F)(F)F)c3)c2cc1OC1CCOC1 it is 31.3%.
Same read-out and setting: next, `CCNC(=O)CC1N=C(c2ccc(Cl)cc2)c2cc(OC)ccc2-n2c(C)nnc21` (centres undefined) + COc1cc2nc(C)nc(NC(C)c3cc(N)cc(C(F)(F)F)c3)c2cc1OC1CCOC1: 26.5%.
Still for that read-out and setting: the figure for `Cn1nccc1Nc1nccc(-c2cc3c(s2)C(C)(C)N(CCN2CCOCC2)C3=O)n1` + COc1cc2nc(C)nc(NC(C)c3cc(N)cc(C(F)(F)F)c3)c2cc1OC1CCOC1 is 45%.

The test is the same for the next values; noted with them: second compound 3.16 µM; first compound 3.16 µM; hits give low values.
Consider `CC1COCCN1c1cc(-c2ccnn2C)c2ccnc(-c3ccn[nH]3)c2n1` (centres undefined) + COc1cc2nc(C)nc(NC(C)c3cc(N)cc(C(F)(F)F)c3)c2cc1OC1CCOC1, for which the viability, T/C is 3.79%.
As to `CC1OCC2(CCN(c3cnc(Sc4ccnc(N)c4Cl)c(N)n3)CC2)C1N` (centres undefined) + COc1cc2nc(C)nc(NC(C)c3cc(N)cc(C(F)(F)F)c3)c2cc1OC1CCOC1, the viability, T/C was 23.5%.
Consider `CCNC(=O)CC1N=C(c2ccc(Cl)cc2)c2cc(OC)ccc2-n2c(C)nnc21` (centres undefined) + COc1cc2nc(C)nc(NC(C)c3cc(N)cc(C(F)(F)F)c3)c2cc1OC1CCOC1, for which the viability, T/C is 20.6%.
Same read-out and setting: next, `Cn1nccc1Nc1nccc(-c2cc3c(s2)C(C)(C)N(CCN2CCOCC2)C3=O)n1` + COc1cc2nc(C)nc(NC(C)c3cc(N)cc(C(F)(F)F)c3)c2cc1OC1CCOC1: 41.7%.

The same test, now with this note: second compound 3.16 µM; first compound 10 µM; hits give low values.
As for `CC1OCC2(CCN(c3cnc(Sc4ccnc(N)c4Cl)c(N)n3)CC2)C1N` (centres undefined) + COc1cc2nc(C)nc(NC(C)c3cc(N)cc(C(F)(F)F)c3)c2cc1OC1CCOC1, the viability, T/C is 23.7%.
In the case of `CCNC(=O)CC1N=C(c2ccc(Cl)cc2)c2cc(OC)ccc2-n2c(C)nnc21` (centres undefined) + COc1cc2nc(C)nc(NC(C)c3cc(N)cc(C(F)(F)F)c3)c2cc1OC1CCOC1, the viability, T/C is 21.7%.
As for `Cn1nccc1Nc1nccc(-c2cc3c(s2)C(C)(C)N(CCN2CCOCC2)C3=O)n1` + COc1cc2nc(C)nc(NC(C)c3cc(N)cc(C(F)(F)F)c3)c2cc1OC1CCOC1, the viability, T/C is 36.6%.

The same test, now with this note: second compound 10 µM; first compound 0.00316 µM; hits give low values.
Consider `CCN1CCN(Cc2ccc(Nc3ncc(F)c(-c4cc(F)c5nc(C)n(C(C)C)c5c4)n3)nc2)CC1` + COc1cc2nc(C)nc(NC(C)c3cc(N)cc(C(F)(F)F)c3)c2cc1OC1CCOC1, for which the viability, T/C was 45.4%.

The same test, now with this note: second compound 10 µM; first compound 0.01 µM; hits give low values.
With `CC1COCCN1c1cc(-c2ccnn2C)c2ccnc(-c3ccn[nH]3)c2n1` (centres undefined) + COc1cc2nc(C)nc(NC(C)c3cc(N)cc(C(F)(F)F)c3)c2cc1OC1CCOC1, the viability, T/C was 46.3%.
In the case of `CCN1CCN(Cc2ccc(Nc3ncc(F)c(-c4cc(F)c5nc(C)n(C(C)C)c5c4)n3)nc2)CC1` + COc1cc2nc(C)nc(NC(C)c3cc(N)cc(C(F)(F)F)c3)c2cc1OC1CCOC1, the viability, T/C was 28.9%.

The test is the same for the next values; noted with them: second compound 10 µM; first compound 0.0316 µM; hits give low values.
Consider `CC1COCCN1c1cc(-c2ccnn2C)c2ccnc(-c3ccn[nH]3)c2n1` (centres undefined) + COc1cc2nc(C)nc(NC(C)c3cc(N)cc(C(F)(F)F)c3)c2cc1OC1CCOC1, for which the viability, T/C was 15.9%.
Same read-out and setting: next, `CC1OCC2(CCN(c3cnc(Sc4ccnc(N)c4Cl)c(N)n3)CC2)C1N` (centres undefined) + COc1cc2nc(C)nc(NC(C)c3cc(N)cc(C(F)(F)F)c3)c2cc1OC1CCOC1: 49.5%; `CCN1CCN(Cc2ccc(Nc3ncc(F)c(-c4cc(F)c5nc(C)n(C(C)C)c5c4)n3)nc2)CC1` + COc1cc2nc(C)nc(NC(C)c3cc(N)cc(C(F)(F)F)c3)c2cc1OC1CCOC1: 29.2%.
Regarding `CCNC(=O)CC1N=C(c2ccc(Cl)cc2)c2cc(OC)ccc2-n2c(C)nnc21` (centres undefined) + COc1cc2nc(C)nc(NC(C)c3cc(N)cc(C(F)(F)F)c3)c2cc1OC1CCOC1, the viability, T/C was 63.7%.
On the same count and under the same terms, next, `Cn1nccc1Nc1nccc(-c2cc3c(s2)C(C)(C)N(CCN2CCOCC2)C3=O)n1` + COc1cc2nc(C)nc(NC(C)c3cc(N)cc(C(F)(F)F)c3)c2cc1OC1CCOC1: 52.7%.

The test is the same for the next values; noted with them: second compound 10 µM; first compound 0.1 µM; hits give low values.
As for `CC1COCCN1c1cc(-c2ccnn2C)c2ccnc(-c3ccn[nH]3)c2n1` (centres undefined) + COc1cc2nc(C)nc(NC(C)c3cc(N)cc(C(F)(F)F)c3)c2cc1OC1CCOC1, the viability, T/C is 1.79%.
The same measure, in the same setting: the figure for `CC1OCC2(CCN(c3cnc(Sc4ccnc(N)c4Cl)c(N)n3)CC2)C1N` (centres undefined) + COc1cc2nc(C)nc(NC(C)c3cc(N)cc(C(F)(F)F)c3)c2cc1OC1CCOC1 is 37.5%; for `CCN1CCN(Cc2ccc(Nc3ncc(F)c(-c4cc(F)c5nc(C)n(C(C)C)c5c4)n3)nc2)CC1` + COc1cc2nc(C)nc(NC(C)c3cc(N)cc(C(F)(F)F)c3)c2cc1OC1CCOC1 it is 26.9%; for `CCNC(=O)CC1N=C(c2ccc(Cl)cc2)c2cc(OC)ccc2-n2c(C)nnc21` (centres undefined) + COc1cc2nc(C)nc(NC(C)c3cc(N)cc(C(F)(F)F)c3)c2cc1OC1CCOC1 it is 52.7%.
On the same count and under the same terms, the figure for `Cn1nccc1Nc1nccc(-c2cc3c(s2)C(C)(C)N(CCN2CCOCC2)C3=O)n1` + COc1cc2nc(C)nc(NC(C)c3cc(N)cc(C(F)(F)F)c3)c2cc1OC1CCOC1 is 46.4%.

The test is the same for the next values; noted with them: second compound 10 µM; first compound 0.316 µM; hits give low values.
Take `CC1COCCN1c1cc(-c2ccnn2C)c2ccnc(-c3ccn[nH]3)c2n1` (centres undefined) + COc1cc2nc(C)nc(NC(C)c3cc(N)cc(C(F)(F)F)c3)c2cc1OC1CCOC1: the viability, T/C was 2.06%.
The same measure, in the same setting: next, `CC1OCC2(CCN(c3cnc(Sc4ccnc(N)c4Cl)c(N)n3)CC2)C1N` (centres undefined) + COc1cc2nc(C)nc(NC(C)c3cc(N)cc(C(F)(F)F)c3)c2cc1OC1CCOC1: 31.2%; `CCN1CCN(Cc2ccc(Nc3ncc(F)c(-c4cc(F)c5nc(C)n(C(C)C)c5c4)n3)nc2)CC1` + COc1cc2nc(C)nc(NC(C)c3cc(N)cc(C(F)(F)F)c3)c2cc1OC1CCOC1: 20.3%.
On to `CCNC(=O)CC1N=C(c2ccc(Cl)cc2)c2cc(OC)ccc2-n2c(C)nnc21` (centres undefined) + COc1cc2nc(C)nc(NC(C)c3cc(N)cc(C(F)(F)F)c3)c2cc1OC1CCOC1, for which the viability, T/C was 46.4%.
The same measure, in the same setting: next, `Cn1nccc1Nc1nccc(-c2cc3c(s2)C(C)(C)N(CCN2CCOCC2)C3=O)n1` + COc1cc2nc(C)nc(NC(C)c3cc(N)cc(C(F)(F)F)c3)c2cc1OC1CCOC1: 44.1%.

The same test, now with this note: second compound 10 µM; first compound 1 µM; hits give low values.
Regarding `CC1COCCN1c1cc(-c2ccnn2C)c2ccnc(-c3ccn[nH]3)c2n1` (centres undefined) + COc1cc2nc(C)nc(NC(C)c3cc(N)cc(C(F)(F)F)c3)c2cc1OC1CCOC1, the viability, T/C is 1.48%.
Turning to `CC1OCC2(CCN(c3cnc(Sc4ccnc(N)c4Cl)c(N)n3)CC2)C1N` (centres undefined) + COc1cc2nc(C)nc(NC(C)c3cc(N)cc(C(F)(F)F)c3)c2cc1OC1CCOC1, the viability, T/C was 25.2%.
Turning to `CCN1CCN(Cc2ccc(Nc3ncc(F)c(-c4cc(F)c5nc(C)n(C(C)C)c5c4)n3)nc2)CC1` + COc1cc2nc(C)nc(NC(C)c3cc(N)cc(C(F)(F)F)c3)c2cc1OC1CCOC1, the viability, T/C is 0.34%.
On to `CCNC(=O)CC1N=C(c2ccc(Cl)cc2)c2cc(OC)ccc2-n2c(C)nnc21` (centres undefined) + COc1cc2nc(C)nc(NC(C)c3cc(N)cc(C(F)(F)F)c3)c2cc1OC1CCOC1, for which the viability, T/C is 23.6%.
In the case of `Cn1nccc1Nc1nccc(-c2cc3c(s2)C(C)(C)N(CCN2CCOCC2)C3=O)n1` + COc1cc2nc(C)nc(NC(C)c3cc(N)cc(C(F)(F)F)c3)c2cc1OC1CCOC1, the viability, T/C is 43.8%.

Staying with this test, now noted: second compound 10 µM; first compound 3.16 µM; hits give low values.
As for `CC1COCCN1c1cc(-c2ccnn2C)c2ccnc(-c3ccn[nH]3)c2n1` (centres undefined) + COc1cc2nc(C)nc(NC(C)c3cc(N)cc(C(F)(F)F)c3)c2cc1OC1CCOC1, the viability, T/C is 0.91%.
On the same count and under the same terms, next, `CC1OCC2(CCN(c3cnc(Sc4ccnc(N)c4Cl)c(N)n3)CC2)C1N` (centres undefined) + COc1cc2nc(C)nc(NC(C)c3cc(N)cc(C(F)(F)F)c3)c2cc1OC1CCOC1: 25.3%; `CCNC(=O)CC1N=C(c2ccc(Cl)cc2)c2cc(OC)ccc2-n2c(C)nnc21` (centres undefined) + COc1cc2nc(C)nc(NC(C)c3cc(N)cc(C(F)(F)F)c3)c2cc1OC1CCOC1: 19.5%; `Cn1nccc1Nc1nccc(-c2cc3c(s2)C(C)(C)N(CCN2CCOCC2)C3=O)n1` + COc1cc2nc(C)nc(NC(C)c3cc(N)cc(C(F)(F)F)c3)c2cc1OC1CCOC1: 34.7%.

Staying with this test, now noted: second compound 10 µM; first compound 10 µM; hits give low values.
As for `CC1OCC2(CCN(c3cnc(Sc4ccnc(N)c4Cl)c(N)n3)CC2)C1N` (centres undefined) + COc1cc2nc(C)nc(NC(C)c3cc(N)cc(C(F)(F)F)c3)c2cc1OC1CCOC1, the viability, T/C is 16.2%.
Still for that read-out and setting: the figure for `CCNC(=O)CC1N=C(c2ccc(Cl)cc2)c2cc(OC)ccc2-n2c(C)nnc21` (centres undefined) + COc1cc2nc(C)nc(NC(C)c3cc(N)cc(C(F)(F)F)c3)c2cc1OC1CCOC1 is 13.9%.
`Cn1nccc1Nc1nccc(-c2cc3c(s2)C(C)(C)N(CCN2CCOCC2)C3=O)n1` + COc1cc2nc(C)nc(NC(C)c3cc(N)cc(C(F)(F)F)c3)c2cc1OC1CCOC1: the viability, T/C was 25.4%.

(Values after PubChem BioAssay AID1963867 (Molecular Pharmacology Branch, DTP, NCI, 2024).)
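Further: spheroids exposed to agents for seven days before reading; 100% = DMSO vehicle wells so lower means fewer viable cells.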
